The source of these data is US6197751A, “Thymosin α1 promotes tissue repair, angiogenesis and cell migration” (The United States of America as represented by the …, priority 1998, dated 2001).

The subject of one assay is HUVEC. The assay is described as follows: In vitro "scratch" wound closure assay. Particulars: media alone 1%. The assay is classed as cell-based, human. How it is done: During angiogenesis the cells may be presented with a constant level of Tα1. The "scratch" wound closure assay was used to assess the potential effects of constant doses of Tα1 on cell migration. Confluent monolayers were "scratch" wounded using the tip of a universal blue pipette tip and rinsed with PBS. Tα1 (1, 10, 100, and 1000 ng/ml) or ECGS (200 μg/ml) was added to the wells in fresh media lacking ECGS but containing 10 mM thymidine to inhibit cell proliferation (Malinda et al., FASEB J. 11: 474, 1997). Antibody inhibition experiments were carried out as described above by wounding the cell monolayer and then adding either anti-Tα1 polyclonal antibody (1/25, 1/50 dilution) or pre-immune serum (1/25 dilution), or fresh media to the plate.

Assay [1] has as its system human coronary artery endothelial cells. The assay is described as follows: Boyden chamber migration, coronary artery endothelial cells. It counts as cell-based. The settings on record: for average number of cells that migrated ± SEM: HCAEC. How it is done: (§1) Human umbilical vein endothelial cells (HUVECs) were isolated from freshly delivered cords according to Jaffe et al. (J. Clin. Invest. 52: 2745, 1973) and grown on Nunclon dishes (Nunc, Denmark) in RPMI 1640 (Life Technologies, Gaithersburg, Md.) supplemented with 20% bovine calf serum (Hyclone Laboratories, Logan Utah), 100 U/ml penicillin/streptomycin (Life Technologies, Gaithersburg, Md.), 50 μg/ml gentamycin (Life Technologies, Gaithersburg, Md.), 2.7 μg/ml amphotericin B (fungizone)(Life Technologies, Gaithersburg, Md.), 5 U/ml sodium heparin (Fisher Scientific, Pittsburgh, Pa.) and 200 μg/ml endothelial cell growth supplement (ECGS) (Collaborative Research, Bedford, Mass.). Cells between passage 3 and 5 were used for all experiments. Human coronary artery endothelial cells (HCAECs) were grown on Nunclon dishes in the HUVEC media. Foreskin fibroblasts (Ffs) were grown in DMEM supplemented with 10% fetal bovine serum (Hyclone) on Falcon (Becton Dickinson, N.J.) dishes. HT1080 cells (human fibrosarcoma cell line) were grown in Falcon flasks in DMEM supplemented with 10% fetal bovine serum. Neutrophils were freshly isolated from buffy coats as previously reported (Kibbey et al., J. Cell Phys. 160:185, 1994). Human aortic smooth muscle cells (AOSMCs) were grown in smooth muscle cell media (Clonetics, San Diego, Calif.) on Nunclon dishes.
(§2) Several cell types were tested to determine if the migratory stimulation observed with Tα1 was specific. […] HUVEC migration assays were carried out in Boyden chambers using 12 ,m pore PVP free filters coated with either a 0.1 mg/ml or 0.05 mg/ml solution of collagen IV as previously reported (Malinda et al., FASEB J. 11:474, 1997). Each condition was assayed in triplicate wells at least three times unless indicated. HCAECs, AOSMCs, FFs, HT1080 cells and neutrophils were cultured or isolated and assayed for migration as previously reported (Malinda et al., FASEB J. 11:474, 1997).

In assay [2] the test system is HT1080 cells (human fibrosarcoma cell line). Nature of the assay: Boyden chamber migration, HT1080 cells. The assay is classed as cell-based. How it is done: as §1, §2

Ends that are not written are not given here.

As to “thymosin α1 (SDAAVDTSSEITTKDLKEKKEVVEEAEN; not fully specified; ends and bridges not checked; UniProt P06454 2-29, looked up) [Tα1, 28 amino acid peptide which results from the cleavage of the N-terminal region of prothymosin α1]”, the wound closure amounted to 7% in the assay with HUVEC (100 ng/ml Tα1, 2 h) and 14% in the assay with HUVEC (1000 ng/ml Tα1, 2 h after wounding). Also, the “increase in migration over media alone” value in assay [1] (1000 ng of Tα1) is listed as 2 fold. Further, the migration entry in assay [1] (1-100 ng doses) is recorded as “Significant migration”. Moreover, the “average number of cells that migrated ± SEM” value was 14 ± 0.3 in assay [1] (Thymosin α1 1 ng/ml); 16 ± 0.5 in assay [1] (Thymosin α1 10 ng/ml); 18 ± 0.4 in assay [1] (Thymosin α1 100 ng/ml); 21 ± 0.4 in assay [1] (Thymosin α1 1000 ng/ml); 2.4 ± 0.8 in assay [2] (HT1080, Thymosin α1 1 ng/ml); 1.8 ± 0.4 in assay [2] (HT1080, Thymosin α1 10 ng/ml). The “average number of cells that migrated ± SEM” value was found to be 1.3 ± 0.7 in assay [2] (HT1080, Thymosin α1 100 ng/ml) and 0.9 ± 0.4 in assay [2] (HT1080, Thymosin α1 1000 ng/ml). For the same substance, in assay [2] (HT1080 fibrosarcoma cells), the “migration toward Tα1” value is “did not demonstrate any significant migration”.
